From patent publication US8691517B2, “Flexible carbohydrate-bearing polymer” (Medtronic Minimed, Inc., priority 2005, dated 2014)

Target: MBL (Homo sapiens, UniProt P11226)
Assay: affinity of monomeric saccharide unit to MBL
Assay type: binding

MBL, sequence (P11226 21-248): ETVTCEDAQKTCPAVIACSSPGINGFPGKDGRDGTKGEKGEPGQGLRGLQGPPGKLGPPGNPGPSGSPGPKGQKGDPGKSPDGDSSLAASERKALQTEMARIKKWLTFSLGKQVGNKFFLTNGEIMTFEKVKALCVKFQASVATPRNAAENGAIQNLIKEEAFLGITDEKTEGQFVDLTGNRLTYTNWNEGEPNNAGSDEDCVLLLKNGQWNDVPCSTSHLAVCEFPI

Structure (SMILES)	IC50 [mM]
CC(=O)N[C@H]1C(O)O[C@H](CO)[C@@H](O)[C@@H]1O (some centres unmarked) [N-acetyl-glucosamine]	~6
O=C[C@H](O)[C@@H](O)[C@@H](O)[C@H](O)CO [galactose]	~36
